Experimental findings from patent publication US20250268844A1, “ANTICANCER AGENTS BASED ON CYCLOPENTENONES” (UNIVERSITY OF CRETE, priority 2022, published 2025) are described below.

What is called IC50 is the point on the concentration scale where inhibition reaches its midpoint.

The subject of test [1] is A2780 ovarian carcinoma cells. Nature of the test: MTT conversion assay, A2780. Format: cell-based, human. The settings on record: 48 hrs treatment. How it is done: (§1) In particular, Enone-1 and Enone-2 were tested for cytotoxic activity in 17 cell lines representing a broad spectrum of human tumors. They include human colorectal carcinoma (Caco2, RKO, HCT15, HT29), liver (HepG2), lung (A549), ovarian carcinoma (A2780, 2780CP, AGE60, SKOV3), anaplastic large cell lymphoma (Mac1 and Mac2a), breast carcinoma (MDA-MB-231), cervical (HeLa), bladder cancer (VM-CUB-1), melanoma (BRO), and multiple myeloma (MR20).
(§2) Each assay was performed in triplicate and repeated in 2-3 independent experiments. Specifically, to measure cell survival, 20 μl of 10 mg/ml MTT (3-([…])-2,5-diphenyl tetrazolium bromide; Sigma) was added to each well and the plates were incubated at 37° C. in 5% CO2 for 3 hours. The supernatant was removed and the formed crystals were dissolved in 200 μl dimethyl sulphoxide. The plates were then analysed at 450 nm on a plate reader. Growth inhibition (reduction in survival) was calculated by expressing the differences in optical densities between treatment wells and control wells as a percentage of the control.
For orientation: Tetrazolium dyes change colour on reduction, which living cells bring about.

Test [2] relates to 2780CP, a cis-platin-resistant derivative of A2780. Nature of the test: MTT conversion assay, 2780CP. The class given is cell-based, human. The settings on record: for IC50: 2780CP, ovarian, cis-platin-resistant, 48 hrs treatment, MTT; for sensitivity of 2780CP cells compared with cis-platin-sensitive A2780 cells: MTT conversion assays. How it is done: as §1, §2
Resistance to platinum-based chemotherapy is a major problem in oncology that impacts therapeutic options and limits patient survival. This is relevant to several types of malignancy, including ovarian cancer where platinum resistance frequently occurs. As Enone-1 and 2 show efficacy in reducing survival of A2780 ovarian carcinoma cells, the drugs were also tested in 2780CP, a cis-platin-resistant derivative of A2780 [13].

Test [3] has as its system SKOV3 ovarian carcinoma cells. Nature of the test: MTT conversion assay, SKOV3. The class given is cell-based, human. Here is the method: as §1, §2
Test [4] has as its system AGE60 ovarian carcinoma cells. Kind of test: MTT conversion assay, AGE60. Format: cell-based, human. The settings on record: 48 hrs treatment. How it is done: as §1, §2
For test [5], the system named is RKO colorectal carcinoma cells. Kind of test: MTT conversion assay, RKO. The class given is cell-based, human. The settings on record: colon, 48 hrs treatment. Here is the method: as §1, §2
The test system of test [6] is HT29 colorectal carcinoma cells. Kind of test: MTT conversion assay, HT29. The class given is cell-based, human. The settings on record: 48 hrs treatment. Here is the method:
as §1, §2

For test [7], the system named is Caco-2 colorectal carcinoma cells. Kind of test: MTT conversion assay, Caco-2. The settings on record: Homo sapiens, Caco-2, colon, 48 hrs treatment. Format: cell-based. How it is done: as §1, §2
Test [8] relates to HCT15 colorectal carcinoma cells. Kind of test: MTT conversion assay, HCT15. The class given is cell-based, human. The settings on record: 48 hrs treatment. Here is the method:
as §1, §2

The test system of a further test is HepG2 liver cells. Kind of test: MTT conversion assay, HepG2. The class given is cell-based, human. The settings on record: 48 hrs treatment. How it is done:
as §1, §2

The next test concerns A549 lung cells. Nature of the test: MTT conversion assay, A549. The class given is cell-based, human. The settings on record: 48 hrs treatment. How it is done: as §1, §2
In test [9] the test system is MR20 multiple myeloma cells. Kind of test: MTT conversion assay, MR20. Format: cell-based, human. The settings on record: 48 hrs treatment. How it is done:
as §1, §2

Test [10] concerns VM-CUB-1 bladder cancer cells. Kind of test: MTT conversion assay, VM-CUB-1. The class given is cell-based, human. The settings on record: 48 hrs treatment. How it is done: as §1, §2
Another test concerns BRO melanoma cells. Nature of the test: MTT conversion assay, BRO. Format: cell-based, human. The settings on record: 48 hrs treatment. How it is done:
as §1, §2

For test [11], the system named is A2780 ovarian cancer cells. Nature of the test: PrestoBlue cell viability assay. Format: cell-based, human. The settings on record: 72 hrs treatment, n=3 experiments. How it is done:
The effects of Enone-1 and Enone-2 on cancer cells were confirmed using a second methodology, namely the PrestoBlue assay (PrestoBlue™ Cell Viability Reagent, Thermo Fisher, Catalog number: A13261), a cell permeable resazurin-based solution that functions as a cell viability indicator. A2780 ovarian cancer cells were plated as described above for the MTT assays and Enone drugs were added at increasing concentrations as indicated in FIG. 2. Cell viability was determined 72 hrs later following the addition of PrestoBlue, according to the manufacturer's instructions (Thermo Fisher).

Test [12] has as its system MB49 mouse bladder carcinoma cells. Kind of test: MTT assay, MB49. The class given is cell-based. The settings on record: 48 hrs. How it is done: FIG. 5: Effects of enone compounds on mouse tumor growth.
as §2
First, the impact of Enone-1 and Enone-2 on the survival of MB49 cells was verified by MTT assays performed as described in FIG. 1.

Test [13] deals with p53. Nature of the test: p53 immunoblot in A2780 cells. Format: cell-based, human. The settings on record: 2.5 μM or increasing concentrations, 6 hrs or time course. Here is the method: (§3) FIG. 8: Enones induce the p53 pathway. […] Cell lysates were analyzed for p53 and GAPDH (loading control). (B) A2780 cells were cultured in the presence or absence of 2.5 μM for the indicated time points before being analyzed for p53 and GAPDH levels. (C) Treatment of A2780 cells with 2.5 μM Enone-2 results in the up-regulation of p53-regulated genes (*p<0.05; **p<0.01; ***p<0.001, n=4). (D) Induction of p53 accumulation in AGE60 ovarian carcinoma cells following 6 or 14 hr exposure to 2.5 μM Enone-2. (E) Enone-1 induces the p53 pathway in A2780 cells which were cultured in the presence of 2.5 μM of the drug and analyzed as in (B). (F) Treatment of A2780 cells with 2.5 μM Enone-2 results in the up-regulation of p53-regulated genes (*p<0.05; **p<0.01; ***p<0.001, n=3).
(§4) The effects of Enone-2 on p53 and p53-dependent transcription of cell cycle and cell death-associated genes was confirmed by immunoblotting for p53 and by reverse transcription qPCR (RT-qPCR) for mdm2, p21, bax and bbc3/puma, established p53 target genes.
On the technique in general: Immunoblotting shows a protein as a band on a membrane.

Test [14] deals with mdm2, p21, bax and bbc3/puma. Kind of test: RT-qPCR of p53 target genes in A2780 cells. Format: cell-based, human. The settings on record: 2.5 μM. How it is done:
as §3, §4
For orientation: Real-time PCR tracks product formation cycle by cycle.

The test system of test [15] is MDA-MB-231 breast carcinoma cells. Kind of test: MTT conversion assay, MDA-MB-231. Format: cell-based, human. The settings on record: 48 hrs treatment. Here is the method:
as §1, §2

Test [16] concerns HeLa cervical carcinoma cells. Nature of the test: MTT conversion assay, HeLa. The settings on record: 48 hrs treatment. Format: cell-based, human. Here is the method: as §1, §2
The test system of a further test is γH2Ax. Nature of the test: γH2Ax immunoblot (DNA damage response marker) in A2780 cells. The class given is cell-based, human. The settings on record: 6 hrs, increasing concentrations, relative to untreated controls. How it is done:
(§5) FIG. 9. […] A2780 cells were cultured for 6 hrs in the presence of drug concentrations as indicated. (B) Effects of siRNA targeting RPL11 (siRPL11), Chek2 (siChek2) or the unrelated luciferase (Luci) genes on RPL11 and Chek2 mRNA levels quantified by RT-PCR. (C) Effects of siRpl11 on Enone-2 and oxaliplatin (OXA)-induced p53 activation. Expression levels relative to GAPDH are indicated; untreated controls (CNT) were given the arbitrary value of 1. […] Expression levels relative to GAPDH are indicated; untreated controls (CNT) were given the arbitrary value of 1.

The test system of test [17] is p53. Kind of test: siRNA knockdown of Chek2 or Rpl11 and drug-induced p53 activation in A2780 cells. Format: cell-based, human. The settings on record: A2780 transiently transfected with siRNAs. How it is done: as §5
To further validate this observation, A2780 cells were transiently transfected with siRNAs targeting Chek2 which is required for DDR-induced p53, or Rpl11 which is required for RS-mediated p53 activation. The efficacy and specificity of the knockdowns were confirmed by RT-qPCR (FIG. 9B).

Consider `C[C@@]1(O)C=CC(=O)C1c1ccc2ccccc2c1` (stereo in doubt) [Enone-1, 4-hydroxy-4-methyl-5-(naphthalen-2-yl)cyclopent-2-en-1-one], for which the IC50 came out at 600 nM in [1] (Homo sapiens); 0.75 µM in test [2] (Homo sapiens, A2780); 800 nM in [3] (Homo sapiens, SK-OV-3, 48 hrs treatment); 1000 nM in test [4] (Homo sapiens, Ovarian carcinoma cell); 1.3 µM in test [5] (Homo sapiens); 1.2 µM in test [6] (Homo sapiens, HT-29, HT29, colon). In addition, the IC50 in test [7] came out at 1800 nM; in test [8] (Homo sapiens, HCT-15, HCT15, colon), 1.2 µM; in the test with HepG2 liver cells (Homo sapiens), 3.8 µM; with A549 lung cells (Homo sapiens), 1.7 µM; in [9] (Homo sapiens, Multiple myeloma cell) it was 0.05 µM; in [10] (Homo sapiens), 1.2 µM. Further, the IC50 amounted to 3.9 µM with BRO melanoma cells (Homo sapiens), 200 nM in test [11] (Homo sapiens) and 1400 nM in test [12]. In addition, the “sensitivity of 2780CP cells compared with cis-platin-sensitive A2780 cells” value in test [2] was “nearly as sensitive”; in [2] (listed as Enone1), “remain sensitive”. Also, the “p53 accumulation (immunoblot)” value in the test with p53 [13] was “induce p53”. Further, the “mdm2, p21, bax and bbc3/puma mRNA (p53-dependent gene expression)” value in test [14] was “induce p53 and p53-dependent gene expression”.
In the case of `N.N.[Cl][Pt][Cl]` [cis-platin, reference compound], the IC50 in [1] was 1400 nM; in test [2], 10 µM; in test [3] (48 hrs treatment) it was 4000 nM; in [4] it was 5000 nM; in [5] it was 19 µM; in test [6] (HT29, colon) it was 13.5 µM. The IC50 in test [8] (HCT15, colon) is 14 µM; with HepG2 liver cells, 9 µM; in the test with A549 lung cells it was 7.5 µM; in test [15], 32 µM; in test [9] it was approximately 5.8 µM; in test [9] (listed as Cis-platin) it was 5.8 µM. The IC50 in test [16] was approximately 31 µM; in test [16] (listed as Cis-platin), 31 µM; in [10] it was 7.9 µM; in the test on BRO melanoma cells, 15.2 µM; in test [11], 1400 nM; in test [12], 3800 nM. Further, the “sensitivity of 2780CP cells compared with cis-platin-sensitive A2780 cells” value in test [2] is “less sensitive”. Also, in the test on p53 [13], the “p53 accumulation (immunoblot)” value was “less effective”. Besides, the “γH2Ax induction (marker of DDR)” value in the test with γH2Ax is on record as “induced γH2Ax”. In addition, the “effect of Chek2 or Rpl11 siRNA knockdown on drug-induced p53 activation” value with p53 [17] is reported as “Chek2 knockdown ameliorated cis-platin-induced p53 activation”.
As for `O=C1[O][Pt]2([NH][C@@H]3CCCC[C@H]3[NH]2)[O]C1=O` [oxaliplatin, reference compound], the IC50 in test [11] stood at 270 nM. For the same compound, the “effect of Chek2 or Rpl11 siRNA knockdown on drug-induced p53 activation” value in the test with p53 [17] is recorded as “depletion of Rpl11 reduced oxaliplatin-induced p53 accumulation”.
